Assay results as given in patent US8507547B2, “Anti-fatigue agents and oral compositions containing andrographolide as active ingredient” (Suntory Holdings Limited, priority 2007, dated 2013).

System: Balb/c mice
Assay: Water-immersion and sleep-disturbance test (weight-loaded forced swimming test, swimming time)
Format: in vivo
Source text: The first test is measurement of a swimming time in a water-immersion and sleep-disturbance test. This is described in detail below in Example 1. Mice raised in an environment, such as a water-immersed environment, where they were not allowed to take enough sleep or to take a comfortable posture so that they could take neither physical nor mental rest were weighted and forced to swim, and a length of time that passed until noses of the mice sank under the water for a period of 10 seconds or longer was measured (weight-loaded forced swimming test) to determine their fatigue level.
That is to say, since this animal model is a physical and mental fatigue model as well as an organ fatigue model described below, anti-fatigue action against physical and/or mental fatigue would be confirmed if the swimming time becomes longer as a result of administration of the test substance. Such anti-fatigue action is considered to be involved in reduction in fatigue stress, maintenance of physical energy under fatigue conditions (enhancement of body strength), improvement in endurance, and the like.
Effect of andrographolide on fatigue from water immersion and sleep disturbance was examined using a partially modified method of Tanaka et al. (Neuroscience Let. 352, 159-162, 2003). […] Four out of the five groups were reared as water-immersed groups; the groups were kept in cages in such a manner that each of the cages was filled with tap water at 23° C. with a water depth of 7 mm, instead of a floor covering, so that the mice were immersed in water and deprived of sleep. The mice were immersed in water for two days, andrographolide (Aldrich corp., purity 98%) was forcibly administered orally to the mice with doses of 0.5, 2, 8 mg per kilogram of body weight once daily during the two days (water-immersed and andrographolide-administered group). As a control group, one of the groups was immersed in water for two days, and distilled water was forcibly given orally to the group once daily during the two days (water-immersed control group). The remaining one of the five groups was reared as a normally-reared group; this group was kept in a cage with a normal floor covering, and distilled water was forcibly given orally to the group once daily during the two-day rearing (normally-reared control group). After the two days, each of the mice was provided with a weight corresponding to 8% of its body weight, which weight was attached to its tale, and then the mice were forced to swim in a water tank having a diameter of 18 cm and filled with water having a depth of 30 cm. A length of time that passed until the mice sank under water for a period of 10 seconds or longer (swimming time) was measured (weight-loaded forced swimming test).
The swimming time of the mice of the water-immersed group was shorter than that of the mice of the normally-reared group because of fatigue from the water immersion and sleep disturbance. The effect of andrographolide on the fatigue from the water immersion and sleep disturbance was examined by determining recovery of a reduction in the swimming time of the mice of the water-immersed group after the administration of andrographolide.
In accordance with the procedure described in Example 1, effect on water-immersion and sleep-disturbance fatigue was examined in a case in which andrographolide was administered alone to mice, a case in which alpha-lipoic acid was administered alone to mice, and a case in which a combination of andrographolide and alpha-lipoic acid was administered to mice. Eight-week-old male Balb/c mice were used as a test animal. […] Four out of the five groups served as water-immersed groups, and each of the groups was kept in a cage filled with tap water at 23° C. with a water depth of 7 mm, instead of a floor covering, so that the mice were immersed in water and deprived of sleep. […]

Structure (SMILES): O=C(O)CCCCC1CCSS1 (stereo not drawn) [alpha-lipoic acid, 1,2-dithiolane-3-pentanoic acid, reference compound]
- shortening of the swimming time (Example 5, FIG. 5, andrographolide 0.25 mg/kg (5a), alpha-lipoic acid 50 mg/kg (5b) or both (5c), orally once daily during two days of water immersion): prevented from shortening
- increase rate of the swimming time (Example 5, swimming time of normally-reared group minus water-immersed control group = 100%, andrographolide 0.25 mg/kg, alpha-lipoic acid 50 mg/kg, alone or combined): 13%
- anti-fatigue action in the fatigue animal model of mice (alpha-lipoic acid 50 mg/kg alone or with andrographolide 0.25 mg/kg, during fatigue stress): anti-fatigue action was produced
